The subject of assay [1] is sugar cane Variety RB 86-7515. Put plainly: Greenhouse pot test: effect of formulated clothianidin on vigour. The assay is classed as in vivo. The conditions noted are these: carretels; result in words.
Experimental: Greenhouse test with sugarcane buds growing in pots were conducted to study the effect of clothianidin equivalent to an application rate of 200 g ai. ha^−1 on “vigour”, evaluating tillers, plant height, leaf width and culm diameter. This trial was conducted on sugar cane Variety RB 86-7515.
1) carretel with one bud treated with clothianidin (200 g ai. ha^−1) 2) carretel with one bud treated with clothianidin (200 g ai. ha^−1)+15% v/v of polymer 3) stalk with 3 buds untreated 4) carretel with one bud untreated+15% v/v of polymer 5) carretel with one bud untreated 6) stalk with 3 buds treated with clothianidin (200 g ai. ha^−1).
Twenty 1 L pots were filled with 16 L of clay soil, 1.6 L of sand and 8 g of nitrogen, 28 g of phosphorus (P2O5) and 16 g of potassium (K2O). Six carretels of 4 cm length with one bud were planted in each pot (treatments 1, 2, 4 and 5). Two stalks with three buds were planted in each control pot (treatments 3 and 6) to simulate conventional planting. A layer of 3 cm of soil was used to cover the carretels. The carretels of treatments 1 and 2 were treated with 200 g ai.ha^−1 of clothianidin, by dipping the carretels in a slurry for 3 min. The stalks were treated simulating a furrow application at 100 L.ha^−1 of slurry. The pots were maintained with adequate moisture during the test. […]
The subject of assay [2] is sugar cane Variety RB 86-7515. Nature of the assay: Greenhouse pot test: effect of formulated fipronil on vigour. The note with it: result in words. The assay is classed as in vivo.
Experimental: Greenhouse test with sugarcane buds growing in pots were conducted to study the effect of fipronil equivalent to an application rate of 200 g. ha^−1 on “vigour”, evaluating tillers, plant height, leaf width and culm diameter on sugar cane Variety RB 86-7515.
Twenty 1 L pots were filled with 16 L of clay soil, 1.6 L of sand and 8 g of nitrogen, 28 g of phosphorus (P2O5) and 16 g of potassium (K2O). Six carretels of 4 cm length with one bud were planted in each pot (treatments 1, 2, 4 and 5). Two stalks with three buds were planted in each control pot (treatments 3 and 6) to simulate conventional planting. A layer of 3 cm of soil was used to cover the carretels. The carretels of treatments 1 and 2 were treated with 200 g ai.ha^−1 of fipronil, by dipping the carretels in the slurry for 3 min, based on the uptake capacity of carretels. The stalks were treated simulating a furrow application at 100 L.ha^−1 of slurry. Experimental design adopted was randomized complete block with four replications. The pots were maintained with adequate moisture during the test. Evaluations of: plant height, leaf width, culm diameter and number of tillers were done at 20, 30 and 42 days after planting.
Assay [3] has as its system sugar cane Variety RB 86 7515. Put plainly: Greenhouse pot test: effect of formulated imidacloprid on vigour. The class given is in vivo. The conditions noted are these: result in words.
Text: 1) carretel with one bud treated with Imidacloprid (1200 g. ha^−1) 2) carretel with one bud treated with Imidacloprid (1200 g. ha^−1)+15% v/v of polymer 3) stalk with 3 buds untreated 4) carretel with one bud untreated 5) carretel with one bud untreated+15% v/v of polymer 6) stalk with 3 buds treated with Imidacloprid (1200 g. ha^−1).
Twenty 1 L pots were filled with 16 L of clay soil, 1.6 L of sand and 8 g of nitrogen, 28 g of phosphorus (P2O5) and 16 g of potassium (K2O). Six carretels of 4 cm length with one bud were planted in each pot (treatments 1, 2, 4 and 5). Two stalks with three buds were planted in each control pot (treatments 3 and 6) to simulate conventional planting. A layer of 3 cm of soil was used to cover the carretels. The carretels of treatments 1 and 2 were treated with 1200 g ai.ha^−1 of imidacloprid, by dipping the carretels in the slurry for 3 min, based on the uptake capacity of carretels. The stalks were treated simulating a furrow application at 100 L.ha^−1 of slurry. Experimental design adopted was randomized complete block with four replications. The pots were maintained with adequate moisture during the test. Evaluations of: plant height, leaf width, culm diameter and number of tillers were done at 20, 30 and 42 days after planting.
The subject of a further assay is Variety RB 86-7515. Put plainly: Greenhouse pot test: effect of formulated thiamethoxam on vigour. The assay is classed as in vivo, sugarcane. How it is done: This trial was conducted on Variety RB 86-7515.
Assay [4] relates to sugar cane Variety RB 86-7515. Put plainly: Greenhouse pot test: effect of formulated abamectin on vigour (tillers, plant height, leaf width, culm diameter). The class given is in vivo.
Experimental: Greenhouse test with sugarcane buds growing in pots were conducted to study the effect of formulated abamectin regarding “vigour”, tillers, plant height, leaf width and culm diameter on sugar cane Variety RB 86-7515.
1) carretel with one bud treated with abamectin 2) carretel with one bud treated with abamectin+15% v/v of polymer 3) stalk with 3 buds untreated 4) carretel with one bud untreated 5) carretel with one bud untreated+15% v/v of polymer 6) stalk with 3 buds treated with abamectin.
Twenty 1 L pots were filled with 16 L of clay soil, 1.6 L of sand and 8 g of nitrogen, 28 g of phosphorus (P2O5) and 16 g of potassium (K2O). Six carretels of 4 cm length with only one bud were planted in each pot (treatments 1, 2, 4 and 5). Two stalks with three buds were planted in each control pot (treatments 3 and 6) to simulate conventional planting. A layer of 3 cm of soil was used to cover the carretels. The carretels of treatments 1, 2 were treated with 200 ml/ha of abamectin, by dipping the carretels in the slurry for 3 min, based on the uptake capacity of carretels. The stalks were treated simulating a furrow application at 100 L.ha^−1 of slurry. Experimental design adopted was randomized complete block with four replications. The pots were maintained with adequate moisture during the test. […]

Consider `CN/C(=N\[N+](=O)[O-])NCc1cnc(Cl)s1` [Clothianidin, clothianidin], for which, in assay [1], the “number of tillers in comparison with the corresponding control (untreated, one-bud)” value is reported as “increased number of tillers” and the “plant height in comparison with the corresponding control (untreated, one-bud)” value is “slight reduction in the plant height”.
For `N#Cc1nn(-c2c(Cl)cc(C(F)(F)F)cc2Cl)c(N)c1[S+]([O-])C(F)(F)F` (stereo not shown) [Fipronil, fipronil], in assay [2], the “height of the resultant plants in comparison with the control” value is “decreased the height of the resultant plants in comparison with the control” and the “number of tillers in comparison with the control” value (from here on “number … with the control”) is reported as “increased the number of tillers present on the plants”.
Take `O=[N+]([O-])NC1=NCCN1Cc1ccc(Cl)nc1` [Imidacloprid, imidacloprid]: in assay [3], the “number … with the control” value is listed as “increase in the number of tillers in comparison with the control”.
As for `CN1COCN(Cc2cnc(Cl)s2)/C1=N\[N+](=O)[O-]` [Thiamethoxam, thiamethoxam], in the assay on Variety RB 86-7515 (against the other treatments, not apparent from the listed parameters), the “increase in "quality"” value was “greater than the other treatments”. In addition, in the assay with Variety RB 86-7515 (carretels, result in words), the “number of tillers in comparison with the corresponding controls” value was “increased number of tillers” and the “plant height in comparison with the corresponding controls” value is “reduced plant height”.
As to abamectin, the Tillers in assay [4] (carretel with one bud, dipped 3 min, 100 g ai/ha (Untreated + Polymer 0.0), polymer 15% v/v where named, 42 days after planting) is reported as 14 number. For the same molecule, the “number … with the control” value in assay [4] (result in words) is “increase in the number of tillers in comparison with the control”.

These data come from patent publication US20100257640A1, “METHOD FOR GROWING SUGARCANE” (SYNGENTA CROP PROTECTION, INC., priority 2007, published 2010).
